How the values were obtained:
human wild type FGFR3 = human wild type FGFR3 (Homo sapiens (Human), UniProt P22607); assay: FGFR3 pERK Cell Assay; assay type: cell-based; conditions: HEK-293 cells, 1 hour compound, 100 ng/ml human FGF-acidic; maximum concentration 5 μM
Procedure: HEK-293 cells transfected with dox-inducible human wild type FGFR3 (SEQ ID NO: 5) were plated in a collagen or poly-D-lysine coated 96 well flat bottom plates at 4×10^5 cells/well in complete DMEM medium containing 10% FBS and 1 μg/ml doxycycline and allowed to attach for 24 h at 37° C., 5% CO2. Cells were treated with compound using 1:3 serial dilutions with a maximum final concentration of 5 μM. Compound was incubated on cells for 1 hour at 37° C., 5% CO2. Cells were then stimulated with a final concentration of 100 ng/ml human FGF-acidic (R&D Systems Cat number 232-FA/CF) for 5 minutes at 37° C., 5% CO2. Medium was removed, and cells were lysed with lysis buffer containing phosphatase and protease inhibitors. Phospho ERK1/2 was measured using the Meso Scale Discovery sandwich assay (Meso Scale Discovery cat. no. K151DWD). The assay captures phospho ERK1/2 and detects with a sulfo-tagged total ERK1/2 antibody. The chemiluminescent signal was read on the Sector Imager Plate reader. 100 POC was determined using no test compounds and 0 POC was determined using a control compound. The POC values were fit to a 4-parameter logistic curve as a function of the concentration of the compound, and the IC50 value is the point where the curve crosses 50 POC.

human wild type FGFR2 = human wild type FGFR2 (Homo sapiens (Human), UniProt P21802); assay: FGFR2 pFGFR Cell Assay; assay type: cell-based; conditions: HEK-293 cells, 1 hour compound, 30 ng/ml human FGF-acidic, ELISA
Procedure: HEK-293 cells transfected with dox-inducible human wild type FGFR2 (SEQ ID NO: 3) were plated in a collagen or poly-D-lysine coated 96 well flat bottom plates at 4×10^5 cells/well in complete DMEM medium containing 10% FBS and 1 μg/ml doxycycline and allowed to attach for 24 h at 37° C., 5% CO2. Cells were treated with compound using 1:3 serial dilutions with a maximum final concentration of 5 μM. Compound was incubated on cells for 1 hour at 37° C., 5% CO2. Cells were then stimulated with a final concentration of 30 ng/ml human FGF-acidic (R&D Systems Cat number 232-FA/CF) for 5 minutes at 37° C., 5% CO2. Medium was removed and cells were lysed with lysis buffer containing phosphatase and protease inhibitors. Phospho FGFR2 was measured by ELISA (R&D Systems cat. no. DYC684). The ELISA captures total FGFR2 and detects total phospho tyrosine. Optical density was measured for each well using a Versamax reader at a wavelength of 450 nm. 100 POC was determined using no test compounds and 0 POC was determined using a control compound. The POC values were fit to a 4-parameter logistic curve as a function of the concentration of the compound, and the IC50 value is the point where the curve crosses 50 POC.

dephosphorylated FGFR2 = dephosphorylated FGFR2 (Homo sapiens (Human), UniProt P21802); assay: FGFR Enzyme Binding Assay (HTRF tracer displacement), FGFR2; conditions: 5 nM dephosphorylated FGFR2, 60 minute incubation at 22° C.; read-out: FGFR2 Enz Binding IC50
Procedure: The potency of compounds inhibiting human isoforms of FGFR kinase was determined using Life Technologies' Homogeneous Time Resolved Fluorescence (HTRF)-based binding assay technology. An incubation was conducted with either 5 nM dephosphorylated FGFR1 (Array Biopharma, p1702; SEQ ID NO: 1, amino acids 458 to 765, dephosphorylated by co-expression with PTP1b (protein tyrosine phosphatase 1B)), 5 nM dephosphorylated FGFR2 (Life Technologies, Cat. No. PV4106 that had been dephosphorylated with Lambda protein phosphatase (New England Biolabs, cat #P0753)) or 5 nM phosphorylated FGFR3 (Array Biopharma, p1836; SEQ ID NO: 5, amino acids 449 to 759), 50 nM Kinase Tracer 236 (Life Technologies Cat. No. PR9078A), 2 nM Biotin-anti-6HIS (Life Technologies Cat. No. PV6090) and 2 nM Europium-Streptavidin (Life Technologies Cat. No. PV6025) along with test compound in a buffer consisting of 50 mM HEPES ((4-(2-hydroxyethyl)-1-piperazineethanesulfonic acid, pH 7.5), 5 mM MgCl2, 0.005% Triton X-100, 1 mM DTT, 1 mM NaVO4 and 2% DMSO in a final volume of 12 μL Compounds were typically prepared as a 3-fold or 4-fold serial dilution in DMSO and added to the assay to give the appropriate final concentration. After a 60 minute incubation at 22° C., the extent of tracer displacement was determined using a PerkinElmer EnVision multimode plate reader via HTRF dual wavelength detection, and the percent of control (POC) was calculated using a ratiometric emission factor. One hundred POC was determined using no test compound, and 0 POC was determined in the presence of 1 μM of an appropriate control inhibitor. A 4-parameter logistic curve was fit to the POC values as a function of the concentration of compound, and the IC50 value was the point where the best-fit curve crossed 50 POC.

Chain of human wild type FGFR3 (P22607 23-806): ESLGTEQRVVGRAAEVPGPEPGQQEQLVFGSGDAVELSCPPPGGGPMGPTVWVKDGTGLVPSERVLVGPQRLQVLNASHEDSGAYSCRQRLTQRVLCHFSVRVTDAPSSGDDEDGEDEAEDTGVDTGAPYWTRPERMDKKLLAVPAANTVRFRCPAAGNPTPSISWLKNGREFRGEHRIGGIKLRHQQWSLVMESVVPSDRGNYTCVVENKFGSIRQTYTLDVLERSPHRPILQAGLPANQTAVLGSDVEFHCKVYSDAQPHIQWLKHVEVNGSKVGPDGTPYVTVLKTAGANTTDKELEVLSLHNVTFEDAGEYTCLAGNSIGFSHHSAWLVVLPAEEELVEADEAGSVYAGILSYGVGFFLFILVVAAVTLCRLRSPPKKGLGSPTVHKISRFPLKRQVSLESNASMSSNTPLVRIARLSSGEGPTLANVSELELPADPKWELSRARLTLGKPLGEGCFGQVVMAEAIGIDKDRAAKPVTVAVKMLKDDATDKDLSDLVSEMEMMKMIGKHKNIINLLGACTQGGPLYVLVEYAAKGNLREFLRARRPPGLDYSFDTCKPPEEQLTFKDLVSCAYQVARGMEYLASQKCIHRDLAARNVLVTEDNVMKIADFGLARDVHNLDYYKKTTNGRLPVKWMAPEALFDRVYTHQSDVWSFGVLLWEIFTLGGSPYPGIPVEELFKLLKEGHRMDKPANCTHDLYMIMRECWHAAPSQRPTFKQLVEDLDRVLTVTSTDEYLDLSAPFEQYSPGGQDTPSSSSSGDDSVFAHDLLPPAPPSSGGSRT
Chain of dephosphorylated FGFR2 (P21802 22-821): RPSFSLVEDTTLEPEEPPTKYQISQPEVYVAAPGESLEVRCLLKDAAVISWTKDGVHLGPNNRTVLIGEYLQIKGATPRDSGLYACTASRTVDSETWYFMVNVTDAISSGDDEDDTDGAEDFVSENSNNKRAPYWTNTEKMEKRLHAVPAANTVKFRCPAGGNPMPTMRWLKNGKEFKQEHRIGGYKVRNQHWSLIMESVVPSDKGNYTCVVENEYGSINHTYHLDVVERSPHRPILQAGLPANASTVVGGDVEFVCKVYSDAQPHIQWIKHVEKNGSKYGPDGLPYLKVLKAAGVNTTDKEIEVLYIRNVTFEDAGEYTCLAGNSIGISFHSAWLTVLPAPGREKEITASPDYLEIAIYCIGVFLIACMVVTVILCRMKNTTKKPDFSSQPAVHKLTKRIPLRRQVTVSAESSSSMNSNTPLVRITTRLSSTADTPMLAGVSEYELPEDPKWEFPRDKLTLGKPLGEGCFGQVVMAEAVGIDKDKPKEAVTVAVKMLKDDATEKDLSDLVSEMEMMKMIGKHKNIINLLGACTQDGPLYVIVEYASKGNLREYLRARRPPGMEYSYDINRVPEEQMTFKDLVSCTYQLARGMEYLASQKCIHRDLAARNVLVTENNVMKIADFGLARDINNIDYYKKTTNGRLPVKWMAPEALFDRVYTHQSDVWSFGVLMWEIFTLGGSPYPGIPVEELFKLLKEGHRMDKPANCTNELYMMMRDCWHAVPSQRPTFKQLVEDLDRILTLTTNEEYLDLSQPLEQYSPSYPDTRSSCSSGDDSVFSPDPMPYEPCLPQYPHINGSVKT
Chain of human wild type FGFR2 (P21802 22-821): as above

Row | SMILES | IC50 (human wild type FGFR3) | IC50 (human wild type FGFR2) | IC50 (dephosphorylated FGFR2)
1 | C=CC(=O)N1CC(C(=O)N2CCN(c3ccc(-c4cnc5ccc(Nc6cc(OC)cc(OC)c6)cc5n4)cn3)CC2)C1 [Example 5, 1-(3-(4-(5-(7-((3,5-dimethoxyphenyl)amino)-quinoxalin-2-yl)pyridin-2-yl)piperazine-1-carbonyl)azetidin-1-yl)-prop-2-en-1-one] | 317 nM | 486 nM | –
2 | C=CC(=O)N1CC(O)(C(=O)N2CCC(n3cc(-c4cnc5ccc(Nc6cc(OC)cc(OC)c6)cc5n4)cn3)CC2)C1 [Example 26, 1-(3-(4-(4-(7-((3,5-dimethoxyphenyl)amino)quinoxalin-2-yl)-1H-pyrazol-1-yl)piperidine-1-carbonyl)-3-hydroxyazetidin-1-yl)prop-2-en-1-one] | 153 nM | – | 5 nM
3 | COc1cc(Nc2ccc3ncc(-c4ccc(N5CCN(C(=O)C6(F)CN(C(=O)/C=C/CN(C)C)C6)CC5)nc4)nc3c2)cc(OC)c1 [Example 7, (E)-1-(3-(4-(5-(7-((3,5-dimethoxyphenyl)amino)-quinoxalin-2-yl)pyridin-2-yl)piperazine-1-carbonyl)-3-fluoroazetidin-1-yl)-4-(dimethylamino)but-2-en-1-one] | 77 nM | 182 nM | 18 nM
4 | C=CC(=O)N1CC(OC)(C(=O)N2CCC(n3cc(-c4cnc5ccc(Nc6cc(OC)cc(OC)c6)cc5n4)cn3)CC2)C1 [Example 24, 1-(3-(4-(4-(7-((3,5-dimethoxyphenyl)amino)-quinoxalin-2-yl)-1H-pyrazol-1-yl)piperidine-1-carbonyl)-3-methoxy-azetidin-1-yl)prop-2-en-1-one] | 19 nM | 49 nM | 8 nM
5 | C#CCN(c1cc(OC)cc(OC)c1)c1ccc2ncc(-c3cnn(C4CCN(C(=O)C5(F)CN(C(=O)/C=C/CN(C)C)C5)CC4)c3)nc2c1 [Example 28, (E)-1-(3-(4-(4-(7-((3,5-dimethoxyphenyl)(prop-2-yn-1-yl)amino)quinoxalin-2-yl)-1H-pyrazol-1-yl)piperidine-1-carbonyl)-3-fluoroazetidin-1-yl)-4-(dimethylamino)but-2-en-1-one] | 8 nM | 6 nM | 3 nM
6 | C=CC(=O)N1CC(CN2CCC(n3cc(-c4cnc5ccc(Nc6cc(OC)cc(OC)c6)cc5n4)cn3)CC2)(OC)C1 [Example 29, 1-(3-((4-(4-(7-((3,5-dimethoxyphenyl)amino)quinoxalin-2-yl)-1H-pyrazol-1-yl)piperidin-1-yl)methyl)-3-methoxyazetidin-1-yl)prop-2-en-1-one] | 25 nM | 56 nM | 5 nM
7 | COc1cc(Nc2ccc3ncc(-c4cnn(C5CCN(C(=O)C6(F)CN(C(=O)/C=C/CN(C)C)C6)CC5)c4)nc3c2)cc(OC)c1 [Example 10, (E)-1-(3-(4-(4-(7-((3,5-dimethoxyphenyl)amino)-quinoxalin-2-yl)-1H-pyrazol-1-yl)piperidine-1-carbonyl)-3-fluoro-azetidin-1-yl)-4-(dimethylamino)but-2-en-1-one] | 14 nM | 28 nM | 6 nM
8 | COc1cc(Nc2ccc3ncc(-c4cnn(C5CCN(C(=O)C6(F)CN(C(=O)/C=C/CN(C)C)C6)CC5)c4C)nc3c2)cc(OC)c1 [Example 17, (E)-1-(3-(4-(4-(7-((3,5-dimethoxyphenyl)amino)-quinoxalin-2-yl)-5-methyl-1H-pyrazol-1-yl)piperi-dine-1-carbonyl)-3-fluoroazetidin-1-yl)-4-(dimethylamino)but-2-en-1-one] | 61 nM | 170 nM | –
9 | COc1cc(Nc2ccc3ncc(-c4cnc(N5CCN(C(=O)C6(F)CN(C(=O)/C=C/CN(C)C)C6)CC5)cc4C)nc3c2)cc(OC)c1 [Example 14, (E)-1-(3-(4-(5-(7-((3,5-dimethoxyphenyl)amino)-quinoxalin-2-yl)-4-methylpyridin-2-yl)-piperazine-1-carbonyl)-3-fluoroazetidin-1-yl)-4-(dimethylamino)but-2-en-1-one] | 540 nM | – | 290 nM
10 | COc1cc(Nc2ccc3ncc(-c4cn(C5CCN(C(=O)C6(F)CN(C(=O)/C=C/CN(C)C)C6)CC5)nc4C)nc3c2)cc(OC)c1 [Example 22, (E)-1-(3-(4-(4-(7-((3,5-dimethoxyphenyl)amino)-quinoxalin-2-yl)-3-methyl-1H-pyrazol-1-yl)-piperidine-1-carbonyl)-3-fluoroazetidin-1-yl)-4-(dimethylamino)but-2-en-1-one] | 113 nM | 301 nM | 19 nM
11 | C=CC(=O)N1CC(O)(C(=O)N2CCC(n3cc(-c4cnc5ccc(N(C)c6cc(OC)cc(OC)c6)cc5n4)cn3)CC2)C1 [Example 27, 1-(3-(4-(4-(7-((3,5-dimethoxyphenyl)(methyl)amino)quinoxalin-2-yl)-1H-pyrazol-1-yl)piperidine-1-carbonyl)-3-hydroxyazetidin-1-yl)prop-2-en-1-one] | 12 nM | 37 nM | 3 nM
12 | C=CC(=O)N1CC(CN2CCC(n3cc(-c4cnc5ccc(Nc6cc(OC)cc(OC)c6)cc5n4)cn3)CC2)C1 [Example 30, 1-(3-((4-(4-(7-((3,5-dimethoxyphenyl)amino)quinoxalin-2-yl)-1H-pyrazol-1-yl)piperidin-1-yl)methyl)azetidin-1-yl)prop-2-en-1-one] | 24 nM | 62 nM | 5 nM
13 | COc1cc(Nc2ccc3ncc(-c4ccc(N5CCN(C(=O)C6CN(C(=O)/C=C/CN(C)C)C6)CC5)nc4)nc3c2)cc(OC)c1 [Example 6, (E)-1-(3-(4-(5-(7-((3,5-dimethoxyphenyl)amino)-quinoxalin-2-yl)pyridin-2-yl)piperazine-1-carbonyl)azetidin-1-yl)-4-(dimethylamino)but-2-en-1-one] | 228 nM | – | 14 nM
14 | C=CC(=O)N1CC(C(=O)N2CCN(c3cccc(-c4cnc5ccc(Nc6cc(OC)cc(OC)c6)cc5n4)c3)CC2)C1 [Example 25, 1-(3-(4-(3-(7-((3,5-dimethoxyphenyl)amino)-quinoxalin-2-yl)phenyl)-piperazine-1-carbonyl)-azetidin-1-yl)prop-2-en-1-one] | – | – | 157 nM
15 | COc1cc(Nc2ccc3ncc(-c4c(C)nn(C5CCN(C(=O)C6(F)CN(C(=O)/C=C/CN(C)C)C6)CC5)c4C)nc3c2)cc(OC)c1 [Example 23, (E)-1-(3-(4-(4-(7-((3,5-dimethoxyphenyl)amino)-quinoxalin-2-yl)-3,5-dimethyl-1H-pyrazol-1-yl)piperidine-1-carbonyl)-3-fluoroazetidin-1-yl)-4-(dimethylamino)but-2-en-1-one] | 699 nM | – | 38 nM

From US12351571B2, “Substituted quinoxaline compounds as inhibitors of FGFR tyrosine kinases” (ARRAY BIOPHARMA INC., priority 2018, dated 2025)
